Our source for the fold induction values is patent US20060276464A1, “Diarylsulfone sulfonamides and use thereof” (Wyeth, priority 2005, published 2006).

The experiment deals with T1, SFRP-1 (Homo sapiens, UniProt Q8N474).
T1 sequence (Q8N474 32-314): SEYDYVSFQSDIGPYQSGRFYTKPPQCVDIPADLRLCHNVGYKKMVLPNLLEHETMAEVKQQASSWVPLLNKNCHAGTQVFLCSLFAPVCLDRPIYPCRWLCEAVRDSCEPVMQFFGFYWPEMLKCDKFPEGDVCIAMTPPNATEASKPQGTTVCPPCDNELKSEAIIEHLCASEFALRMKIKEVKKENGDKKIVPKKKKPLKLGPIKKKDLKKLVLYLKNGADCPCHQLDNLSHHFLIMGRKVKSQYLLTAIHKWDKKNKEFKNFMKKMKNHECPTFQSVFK
As to the kind of experiment: Cell-based assay for in vitro measurement of SFRP-1/SARP2 antagonist activity (U2OS cells co-transfected with 16x TCF-tk-Luciferase reporter, Wnt and hSFRP-1).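 Note: U2OS cells co-transfected with a TCF-tk luciferase reporter, a Wnt vector, hSFRP-1 or empty vector and CMV-βgal, luciferase luminescence read in cell lysates alongside βgal activity.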 Conditions: U2OS. In general terms: In a reporter assay the amount or activity of a reporter protein is the signal.

The mark [1] stands for this setting: read-out: Fold Induction with SFRP-1, Conc 15 μM, with SFRP-1, fold induction over SFRP-1 control, single dose.
[2] abbreviates: read-out: Fold Induction without SFRP-1, Conc 15 μM, without SFRP-1, single dose.

SMILES strings stand for the structures. Where two headings read alike, the source gives them in different places.

For `Cc1cc(S(=O)(=O)c2ccccc2)cc(S(=O)(=O)NCCn2ccnc2)c1C` [Example 347, N-[2-(1H-imidazol-1-yl)ethyl]-2,3-dimethyl-5-(phenylsulfonyl)benzenesulfonamide], the fold induction at 15 µM by setting is: under setting [1], 2.9; under setting [2], 1.1.

Consider `Cc1cc(S(=O)(=O)c2ccccc2)cc(S(=O)(=O)NCCCn2ccnc2)c1C` [Example 348, N-[3-(1H-imidazol-1-yl)propyl]-2,3-dimethyl-5-(phenylsulfonyl)benzenesulfonamide], for which the fold induction at 15 µM amounted to 2.5 under setting [1] and 1.2 under setting [2].

`Cc1cc(S(=O)(=O)c2ccccc2)cc(S(=O)(=O)NCCc2ccccn2)c1C` [Example 349, 2,3-dimethyl-5-(phenylsulfonyl)-N-(2-pyridin-2-ylethyl)benzenesulfonamide]: the fold induction at 15 µM by setting is: under setting [1], 2; under setting [2], 1.2.

On to `Cc1cc(S(=O)(=O)c2ccccc2)cc(S(=O)(=O)NC2CCOCC2)c1C` [Example 350, 2,3-dimethyl-5-(phenylsulfonyl)-N-(tetrahydro-2H-pyran-4-yl)benzenesulfonamide], for which the fold induction at 15 µM under setting [1] came out at 1.8 and the fold induction at 15 µM under setting [2] worked out at 1.3.

For the compound `Cc1cc(S(=O)(=O)c2ccccc2)cc(S(=O)(=O)NCCC2CCOCC2)c1C` [Example 351, 2,3-dimethyl-5-(phenylsulfonyl)-N-[2-(tetrahydro-2H-pyran-4-yl)ethyl]benzenesulfonamide], the fold induction at 15 µM reads like this: under setting [1], 1.5; under setting [2], 1.3.

Take `Cc1ccc(S(=O)(=O)c2ccc(NC3CCCCC3)cc2)cc1S(=O)(=O)NCCCn1ccnc1` [Example 352, 5-{[4-(cyclohexylamino)phenyl]sulfonyl}-N-[3-(1H-imidazol-1-yl)propyl]-2-methylbenzenesulfonamide]: the fold induction at 15 µM reads like this: under setting [1], 1.7; under setting [2], 1.

In the case of `Cc1ccc(S(=O)(=O)c2ccc(NC(C)c3ccccc3)cc2)cc1S(=O)(=O)NCCCn1ccnc1` (centres unmarked) [Example 355, N-[3-(1H-imidazol-1-yl)propyl]-2-methyl-5-({4-[(1-phenylethyl)amino]phenyl}sulfonyl)benzenesulfonamide], the fold induction at 15 µM under setting [1] is 3.4 and the fold induction at 15 µM under setting [2] is 0.9.

In the case of `O=S(=O)(NC1CCOCC1)c1cc(S(=O)(=O)c2ccccc2)ccc1Cl` [Example 361, 2-chloro-5-(phenylsulfonyl)-N-(tetrahydro-2H-pyran-4-yl)benzenesulfonamide], the fold induction at 15 µM reads like this: under setting [1], 2.3; under setting [2], 0.9.

`Cc1ccc(S(=O)(=O)c2cccs2)cc1S(=O)(=O)NCCCn1ccnc1` [Example 362, N-[3-(1H-imidazol-1-yl)propyl]-2-methyl-5-(2-thienylsulfonyl)benzenesulfonamide]: the fold induction at 15 µM was 2.4 under setting [1] and 1.1 under setting [2].

As to `Cc1ccc(S(=O)(=O)c2ccoc2C)cc1S(=O)(=O)NCCCn1ccnc1` [Example 363, N-[3-(1H-imidazol-1-yl)propyl]-2-methyl-5-[(2-methyl-3-furyl)sulfonyl]benzenesulfonamide], the fold induction at 15 µM is, setting by setting: under setting [1], 2.1; under setting [2], 1.1.

As for `Cc1ccc(S(=O)(=O)c2ccccc2)cc1S(=O)(=O)NC(=O)[C@@H](N)Cc1ccccc1` [Example 364, N-{[2-methyl-5-(phenylsulfonyl)phenyl]sulfonyl}-L-phenylalaninamide], the fold induction at 15 µM runs as follows: under setting [1], 1.2; under setting [2], 1.

Take `COC(=O)[C@@H](Cc1ccccc1)NS(=O)(=O)c1cc(S(=O)(=O)c2ccccc2)ccc1C` [Example 365, methyl N-{[2-methyl-5-(phenylsulfonyl)phenyl]sulfonyl}-D-phenylalaninate]: the fold induction at 15 µM was 1.3 under setting [1] and 1.1 under setting [2].

`Cc1ccc(S(=O)(=O)c2ccc(NC3CCOCC3)cc2)cc1S(=O)(=O)NCCCn1ccnc1` [Example 366, N-[3-(1H-imidazol-1-yl)propyl]-2-methyl-5-{[4-(tetrahydro-2H-pyran-4-ylamino)phenyl]sulfonyl}benzenesulfonamide]: the fold induction at 15 µM came to 2.4 under setting [1] and 1 under setting [2].

Turning to `Cc1ccc(S(=O)(=O)c2ccc(NCCCOC(C)C)cc2)cc1S(=O)(=O)NCCCn1ccnc1` [Example 367, N-[3-(1H-imidazol-1-yl)propyl]-5-({4-[(3-isopropoxypropyl)amino]phenyl}sulfonyl)-2-methylbenzenesulfonamide], the fold induction at 15 µM worked out at 2.2 under setting [1] and 0.9 under setting [2].

Take `Cc1ccc(S(=O)(=O)c2ccc(N[C@@H]3C[C@H]4CC[C@@H]3C4)cc2)cc1S(=O)(=O)NCCCn1ccnc1` [Example 369, 5-({4-[(1R,2R,4S)-bicyclo[2.2.1]hept-2-ylamino]phenyl}sulfonyl)-N-[3-(1H-imidazol-1-yl)propyl]-2-methylbenzenesulfonamide]: the fold induction at 15 µM is, setting by setting: under setting [1], 1.9; under setting [2], 0.7.

Take `Cc1ccc(S(=O)(=O)c2ccc(NCc3ccc(C(F)(F)F)cc3)cc2)cc1S(=O)(=O)NCCCn1ccnc1` [Example 374, N-[3-(1H-imidazol-1-yl)propyl]-2-methyl-5-[(4-{[4-(trifluoromethyl)benzyl]amino}phenyl)sulfonyl]benzenesulfonamide]: the fold induction at 15 µM runs as follows: under setting [1], 1.5; under setting [2], 0.9.

As to `Cc1ccc(S(=O)(=O)c2ccc(Br)cc2)cc1S(=O)(=O)NC1CCOCC1` [Example 375, 5-[(4-bromophenyl)sulfonyl]-2-methyl-N-(tetrahydro-2H-pyran-4-yl)benzenesulfonamide], the fold induction at 15 µM under setting [1] came to 1.9 and the fold induction at 15 µM under setting [2] stood at 0.9.

For the compound `Cc1ccc(S(=O)(=O)c2ccc(C#N)cc2)cc1S(=O)(=O)NC1CCOCC1` [Example 376, 5-[(4-cyanophenyl)sulfonyl]-2-methyl-N-(tetrahydro-2H-pyran-4-yl)benzenesulfonamide], the fold induction at 15 µM was 1.5 under setting [1] and 1.1 under setting [2].

Regarding `Cc1ccc(S(=O)(=O)c2ccccc2Cl)cc1S(=O)(=O)NCCCn1ccnc1` [Example 377, 5-[(2-chlorophenyl)sulfonyl]-N-[3-(1H-imidazol-1-yl)propyl]-2-methylbenzenesulfonamide], the fold induction at 15 µM was 1.9 under setting [1] and 1.1 under setting [2].

For `Cc1ccc(S(=O)(=O)c2ccccn2)cc1S(=O)(=O)NCCCn1ccnc1` [Example 378, N-[3-(1H-imidazol-1-yl)propyl]-2-methyl-5-(pyridin-2-ylsulfonyl)benzenesulfonamide], the fold induction at 15 µM reads like this: under setting [1], 1.7; under setting [2], 1.1.

Regarding `Cc1ccc(S(=O)(=O)c2ccc(Cl)cc2Cl)cc1S(=O)(=O)NCCCn1ccnc1` [Example 379, 5-[(2,4-dichlorophenyl)sulfonyl]-N-[3-(1H-imidazol-1-yl)propyl]-2-methylbenzenesulfonamide], the fold induction at 15 µM is, setting by setting: under setting [1], 1.8; under setting [2], 0.9.

On to `CC(=O)c1ccc(S(=O)(=O)c2ccc(C)c(S(=O)(=O)NC3CCOCC3)c2)cc1` [Example 380, 5-[(4-acetylphenyl)sulfonyl]-2-methyl-N-(tetrahydro-2H-pyran-4-yl)benzenesulfonamide], for which the fold induction at 15 µM runs as follows: under setting [1], 0.5; under setting [2], 0.6.
